In PMC11428593 (Antibiotics, 2024):

Tested on: S. aureus strain USA300LAC
Experiment: Fluorescence microscopy (DAPI/Nile Red) of membrane deformation
Format: cell-based, Staphylococcus aureus
Description: Given the high lipophilic nature and membrane-compromising effects of JC-01-074, we wondered about the possibility that the alkyl chain of JC-01-074 could be incorporated into the phospholipid bilayer, thereby destabilizing the uniform packing of the membrane phospholipids and potentially resulting in “bleb formation”, as this had been reported before. To test this idea, we cultivated the S. aureus strain USA300LAC to the mid-log phase and treated the cells with the indicated concentrations of JC-01-074 and daptomycin (as a positive control), respectively. Samples were collected at 15 and 60 mins of treatment, washed twice, and resuspended in fresh PBS. Cells were then stained with 4′,6-diamidino-2-phenylindole (DAPI) and Nile Red for 10 min, respectively. DAPI is a nucleic acid stain that binds to DNA, while Nile Red is commonly used as an inner membrane stain to quantify lipids. The cells were then mounted onto a glass slide with 1% agarose and imaged at 63× magnification via inverted confocal laser scanning microscopy. […] To rule out the possibility that these blebs were transiently formed, we further imaged the cells exposed to JC-01-074 for 60 min. […] The smaller blebs formed may have extended over the incubation time, resulting in their fusion into large blebs.
Figure 5 JC-01-074 treatment rapidly induces deformations in the S. aureus plasma membrane as indicated by the white arrows. […] Cells were collected at the indicated time points and stained with DAPI (5 µg/mL) and Nile Red (5 µg/mL) for 10 min, following which cells were imaged on 1% agarose pads. Images are representatives of three biological replicates. Scale bar = 1.25 µm.
The overnight USA300LAC cultures were diluted into the TSB media to an O.D.600nm = 0.01 and incubated under shaking conditions at 37 °C until the mid-log phase (O.D.600nm = 0.3) was reached. […] The cells were then imaged on 1% agarose gel pads and via fluorescence microscopy using a Leica SP8 confocal microscope. […] Fluorescence was detected between the wavelengths of 500–560 nm, with an 8×- line averaging.

CCCCCCCCCC#Cc1cccc(O)n1 [JC-01-074]
membrane morphology after 60 min (0.5× and 1× MIC, 60 min, USA300LAC): formation of aberrant membrane blebs
lowest concentration at which bleb formation was observed (USA300LAC plasma membrane, 0.5× MIC): 8 µg/mL
earliest time at which bleb formation was observed (USA300LAC, after addition of compound): 15 min
